Each structure is given as a SMILES string. Counter-ions that a name gives are not always drawn.

Assay [1] has as its system oHSV-1 (G207) in BV2 cells. The experiment in a line: G207 replication in BV2 cells with chemical inhibitors, plaque forming assay. The note with it: G207 MOI of 1, 48 hours. The format is cell-based, HSV-1. The method, then:
FIG. 12A contains bar graphs showing the results of BV2 cells that were pre-treated with indicated chemical compounds for 1-2 hours and then infected with oHSV-1 at an MOI of 1. Viruses were harvested after 48 hours of oHSV-1 (G207) and indicated chemical inhibitor treatment.
FIG. 12F is a bar graph showing the results of BV2 cells that were pre-treated with indicated chemical compounds for 1-2 hours and then infected with oHSV-1 at an MOI of 1. Viruses were harvested after 48 hours of oHSV-1 (G207) and indicated chemical inhibitor treatment. After 48 hours of treatment with oHSV-1 (G207) and C16, viruses were harvested and titrated by plaque forming assay on vero cells.
U87 (5×104) alone or U87+microglia co-culture (5×104+5×104) or BV2 microglia cells (5×104) alone were seeded into a 24-well plate. After overnight incubation (to allow the cells to attach), cells were pretreated with indicated concentration of NFkB inhibitor, Bay-11 (Santa Cruz, Canada) or an indicated concentration of imidazolo-oxindole derivative C16 (Milipore, Canada) or vehicle for 1-2 hours. The cells were then infected with oHSV-1 (G207 or HrR3) virus at a MOI of 1 in presence of chemical inhibitors for another 2 days. The viruses were harvested and titrated in vero cells by plaque forming assay in 12-well plates by triplicates.
The effects of a PKR inhibitor (C16), a NFkappaB inhibitor (Bay11), and an iNOS inhibitor (aminoguanidine hydrochloride) were tested on G207 replication in BV2 cells (Example 15). […] To verify that C16-mediated viral gene transcriptional augmentation is not due to deletions in ICP34.5 and/or ICP6 in G207, the effect of C16 on wild type (KOS) and ICP6 mutated (HrR3) HSV-1 infected BV2 cells was also examined. […] Finally, whether C16 can overcome this microglia-mediated suppression of viral replication in glioma cells was examined.

The next assay concerns ICP4. The experiment in a line: Western blot of ICP4 in HSV-1 infected microglia cells. Type of assay: cell-based. The note with it: G207 infected; 1 μM C16, 1 μM Bay11 or 100 μM AG; 24 hours. The method, then: FIG. 12B depicts an electrophoresis gel showing total proteins that were harvested from G2O7 infected microglia cells at 24 hours post treatment with either 1 μM of C16, 1 μM of Bay11, or 100 μM of AG. ICP27, ICP4, and […] expression was measured by western blot assay. U87 and MG co-culture were pretreated with 0.5 μM of C16 for 1 hour.
Total protein was harvested with sample buffer (125 mM Tris-HCL, 50% Glycerol, […] and 5% 2-mercaptoethanol) and boiled for 5 minutes. Protein samples were subjected to SDS-PAGE (8% gel), transferred to nitrocellulose membranes and blocked in 5% nonfat milk (Bio Rad) in TBS-Tween 20 (TBS-T) for 1 hour at room temperature. The membranes were then incubated with primary antibody against β-actin at 1:1000 (Cell Signaling, Danvers, Mass.) or anti-STAT1 antibody at 1:1000 (Cell Signaling, Danvers, Mass.) or anti-STAT3 antibody at 1:1000 (Cell Signaling, Danvers, Mass.) or anti-phospho STAT1 antibody (Tyr701) at 1:1000 (Cell Signaling, Danvers, Mass.) or anti-phospho STAT3 antibody (Tyr705) at 1:1500 (Cell Signaling, Danvers, Mass.) or anti-phosphor-eIF2a antibody (ser51) at 1:1000 (Cell Signaling, Danvers, Mass.) or anti-ICP27 antibody at 1:1000 (Abcam, Cambridge, Mass.) or anti-ICP4 antibody at 1:750 (Abcam, Cambridge, Mass.) for overnight at 4° C. […] Band density was measured by using ImageJ software (NIH, Bethesda, Md.). […]
For orientation: Immunoblotting shows a protein as a band on a membrane.

On to `Cc1ccc(S(=O)(=O)/C=C/C#N)cc1` [Bay11], for which, in assay [1], the “effect on oHSV-1 replication” value is listed as “no effect on oHSV-1 replication”. Besides, the “upregulated expression of ICP4” value in the assay on ICP4 is on record as “not”.
On to `N=C(N)NN` [aminoguanidine hydrochloride], for which the “effect on oHSV-1 replication” value in assay [1] is “no effect on oHSV-1 replication”.

These data come from patent publication US20190307820A1, “COMPOSITIONS AND METHODS OF USING STAT1/3 INHIBITORS WITH ONCOLYTIC HERPES VIRUS” (priority 2016, published 2019).
